Assay results from ChEMBL document CHEMBL4359904, “Structural tuning of acridones for developing anticancer agents targeting dihydrofolate reductase” (Bioorg Med Chem Lett, 2019).
pIC50, pKi: −log10 of the molar value. Calls of active or inactive are those of the source. No cut-off for these calls is given here.

Key:
CCRF-CEM = experiment: Growth inhibition of human CCRF-CEM cells incubated for 48 hrs by sulforhodamine B assay; assay type: functional
K562 [1] = experiment: Growth inhibition of human K562 cells incubated for 48 hrs by sulforhodamine B assay; assay type: functional; settings: K562, 48 h
A549 = experiment: Growth inhibition of human A549/ATCC cells incubated for 48 hrs by sulforhodamine B assay; assay type: functional; settings: A549, 48 h
NCI-H23 = experiment: Growth inhibition of human NCI-H23 cells incubated for 48 hrs by sulforhodamine B assay; assay type: functional; settings: NCI-H23, 48 h
NCI-H522 = experiment: Growth inhibition of human NCI-H522 cells incubated for 48 hrs by sulforhodamine B assay; assay type: functional; settings: NCI-H522, 48 h
HCC 2998 = experiment: Growth inhibition of human HCC2998 cells incubated for 48 hrs by sulforhodamine B assay; assay type: functional; settings: HCC 2998, 48 h
KM12 = experiment: Growth inhibition of human KM12 cells incubated for 48 hrs by sulforhodamine B assay; assay type: functional; settings: KM12, 48 h
SNB-75 = experiment: Growth inhibition of human SNB75 cells incubated for 48 hrs by sulforhodamine B assay; assay type: functional; settings: SNB-75, 48 h
UACC-257 = experiment: Growth inhibition of human UACC257 cells incubated for 48 hrs by sulforhodamine B assay; assay type: functional; settings: UACC-257, 48 h
UACC-62 = experiment: Growth inhibition of human UACC62 cells incubated for 48 hrs by sulforhodamine B assay; assay type: functional; settings: UACC-62, 48 h
IGROV-1 = experiment: Growth inhibition of human IGROV1 cells incubated for 48 hrs by sulforhodamine B assay; assay type: functional; settings: IGROV-1, 48 h
OVCAR-4 = experiment: Growth inhibition of human OVCAR4 cells incubated for 48 hrs by sulforhodamine B assay; assay type: functional; settings: OVCAR-4, 48 h
OVCAR-8 = experiment: Growth inhibition of human OVCAR8 cells incubated for 48 hrs by sulforhodamine B assay; assay type: functional; settings: OVCAR-8, 48 h
SK-OV-3 = experiment: Growth inhibition of human SKOV3 cells incubated for 48 hrs by sulforhodamine B assay; assay type: functional; settings: SK-OV-3, 48 h
UO-31 = experiment: Growth inhibition of human UO31 cells incubated for 48 hrs by sulforhodamine B assay; assay type: functional; settings: UO-31, 48 h
BT-549 = experiment: Growth inhibition of human BT549 cells incubated for 48 hrs by sulforhodamine B assay; assay type: functional; settings: BT-549, 48 h
T47D = experiment: Growth inhibition of human T47D cells incubated for 48 hrs by sulforhodamine B assay; assay type: functional
K562 [2] = experiment: Growth inhibition of human K562 cells at 10^-5 M incubated for 48 hrs by sulforhodamine B assay relative to control; assay type: functional; settings: K562, 48 h, read-out: GI
RPMI-8226 = experiment: Growth inhibition of human RPMI8226 cells at 10^-5 M incubated for 48 hrs by sulforhodamine B assay relative to control; assay type: functional; settings: RPMI-8226, 48 h, read-out: GI
[3] = tested on: Panel NCI-60 (60 carcinoma cell lines); experiment: Growth inhibition of human NCI60 cells at incubated for 48 hrs by sulforhodamine B assay; assay type: functional
C6 [4] = experiment: Antiproliferative activity against rat C6 cells assessed as decrease in cell viability measured after 48 hrs by MTT assay; assay type: functional, cell-based
C6 [5] = experiment: Cell cycle arrest in rat C6 cells assessed as decrease in cell population at S phase measured after 24 hrs by propidium iodide staining based flow cytometry analysis; assay type: functional
[6] = molecular target: T1, Dihydrofolate reductase (Homo sapiens) (UniProt P00374); experiment: Competitive inhibition of human dihydrofolate reductase at 30 uM using varying levels of dihydrofolic acid as substrate preincubated for 1 hr in presence of NADPH followed by substrate addition by Line weaver-Burk based double reciprocal plot analysis
T1 sequence (whole entry): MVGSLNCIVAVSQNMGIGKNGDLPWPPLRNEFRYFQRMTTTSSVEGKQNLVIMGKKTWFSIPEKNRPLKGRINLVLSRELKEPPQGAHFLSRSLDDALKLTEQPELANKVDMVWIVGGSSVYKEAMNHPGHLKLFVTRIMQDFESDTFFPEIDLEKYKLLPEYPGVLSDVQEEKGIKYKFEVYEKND

Dihydrofolate reductase = molecular target: T2, Dihydrofolate reductase (Homo sapiens, UniProt P00374); experiment: Inhibition of human dihydrofolate reductase assessed as inhibition constant by UV-Vis spectra based Benesi Hilebrand equation analysis
T2 sequence (P00374 whole entry): T1 sequence (whole entry)

C6 [7] = experiment: Induction of morphological changes in rat C6 cells assessed as apperance of differentiated morphology with fine and elongated processes after 24 hrs by inverted microscopy analysis; assay type: functional, cell-based
[8] = read-out: LC50 (the source's name)
[9] = read-out: pLC50 (the source's name) (converted)

Structure (SMILES): O=C(OC[C@@H]1CO1)c1cccc2c(=O)c3ccccc3[nH]c12
- GI50 (CCRF-CEM; read-out: GI50): 0.77 µM
- CC50 (CCRF-CEM; [8]): > 100 µM
- CC50 (CCRF-CEM; [9]): > 100 µM
- TGI (CCRF-CEM; read-out: pTGI (converted)): 21.9 µM
- GI50 (K562 [1]): 2.19 µM
- CC50 (K562 [1]; [9]): > 100 µM
- TGI (K562 [1]; read-out: pTGI): > 100 µM
- GI50 (A549): 2.45 µM
- CC50 (A549; [9]): > 100 µM
- TGI (A549; read-out: pTGI (converted)): 7.24 µM
- GI50 (NCI-H23): 1.41 µM
- CC50 (NCI-H23; [9]): > 100 µM
- TGI (NCI-H23; read-out: pTGI (converted)): 4.47 µM
- GI50 (NCI-H522): 1.62 µM
- CC50 (NCI-H522; [9]): 8.71 µM
- TGI (NCI-H522; read-out: pTGI (converted)): 3.72 µM
- GI50 (HCC 2998): 1.51 µM
- CC50 (HCC 2998; [9]): 7.76 µM
- TGI (HCC 2998; read-out: pTGI (converted)): 3.47 µM
- GI50 (KM12): 2.19 µM
- CC50 (KM12; [9]): > 100 µM
- TGI (KM12; read-out: pTGI (converted)): 7.08 µM
- GI50 (SNB-75): 1.51 µM
- CC50 (SNB-75; [9]): 7.94 µM
- TGI (SNB-75; read-out: pTGI (converted)): 3.47 µM
- GI50 (UACC-257): 2.09 µM
- CC50 (UACC-257; [9]): 9.55 µM
- TGI (UACC-257; read-out: pTGI (converted)): 4.47 µM
- GI50 (UACC-62): 1.58 µM
- CC50 (UACC-62; [9]): 6.03 µM
- TGI (UACC-62; read-out: pTGI (converted)): 3.09 µM
- GI50 (IGROV-1): 1.55 µM
- CC50 (IGROV-1; [9]): > 100 µM
- TGI (IGROV-1; read-out: pTGI (converted)): 5.62 µM
- GI50 (OVCAR-4): 2.4 µM
- CC50 (OVCAR-4; [9]): > 100 µM
- TGI (OVCAR-4; read-out: pTGI (converted)): 7.94 µM
- GI50 (OVCAR-8): 1.26 µM
- CC50 (OVCAR-8; [9]): 41.7 µM
- TGI (OVCAR-8; read-out: pTGI (converted)): 5.37 µM
- GI50 (SK-OV-3): 2.63 µM
- CC50 (SK-OV-3; [9]): > 100 µM
- TGI (SK-OV-3; read-out: pTGI (converted)): 7.41 µM
- GI50 (UO-31): 1.74 µM
- CC50 (UO-31; [9]): 77.6 µM
- TGI (UO-31; read-out: pTGI (converted)): 5.01 µM
- GI50 (BT-549): 1.91 µM
- CC50 (BT-549; [9]): > 100 µM
- TGI (BT-549; read-out: pTGI (converted)): 6.03 µM
- GI50 (T47D): 2.51 µM
- CC50 (T47D; [9]): > 100 µM
- TGI (T47D; read-out: pTGI (converted)): 8.32 µM
- inhibition of growth at 10 µM (K562 [2]): 95%
- inhibition of growth at 10 µM (RPMI-8226): 100%
- GI50 [3]: 0.3 µM
- TGI [3]: 1.2 µM
- CC50 [3, 8]: 38 µM
- inhibition (C6 [4]): Dose-dependent effect
- pIC50 (C6 [4]; C6, 48 h): 5.82 to 6.60
- inhibition (C6 [5]): Active
- inhibition [6]: Active
- pKi (Dihydrofolate reductase): 7.04
- Activity (C6 [7]): Active
